± gives the standard deviation of the averaged measurements.
Columns and labels:
PACLITAXEL = compound: CC(=O)O[C@H]1C(=O)[C@@]2(C)[C@H]([C@H](OC(=O)c3ccccc3)[C@]3(O)C[C@H](OC(=O)[C@H](O)[C@@H](NC(=O)c4ccccc4)c4ccccc4)C(C)=C1C3(C)C)[C@]1(OC(C)=O)CO[C@@H]1C[C@@H]2O [PACLITAXEL]; assay: surviving fraction relative to DMSO-only wells; higher = less growth inhibition; conditions: exposure time: 5 days
How it was run: (§1)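 Tumour cell lines were grown to log phase and seeded at 250–500 cells per well in 384-well plates. They were exposed continuously to inhibitors at 0.5, 1, 5, 10, 50, 100, 500 and 1000 nM for five days, beginning 24 hours after seeding. Surviving fraction is CellTiter-Glo luminescence normalised to the median of DMSO-only wells.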

CARBOPLATIN = compound: O=C(O)C1(C(=O)O)CCC1.[NH2-].[NH2-].[Pt+2] [CARBOPLATIN]; assay: as above; conditions: exposure time: 5 days
How it was run: as §1

| Test System | surviving fraction (PACLITAXEL; 0.5 nM) | surviving fraction (PACLITAXEL; 1 nM) | surviving fraction (PACLITAXEL; 5 nM) | surviving fraction (PACLITAXEL; 10 nM) | surviving fraction (PACLITAXEL; 50 nM) | surviving fraction (PACLITAXEL; 100 nM) | surviving fraction (PACLITAXEL; 500 nM) | surviving fraction (PACLITAXEL; 1000 nM) | surviving fraction (CARBOPLATIN; 0.5 nM) | surviving fraction (CARBOPLATIN; 1 nM) | surviving fraction (CARBOPLATIN; 5 nM) | surviving fraction (CARBOPLATIN; 10 nM) | surviving fraction (CARBOPLATIN; 50 nM) | surviving fraction (CARBOPLATIN; 100 nM) | surviving fraction (CARBOPLATIN; 500 nM) | surviving fraction (CARBOPLATIN; 1000 nM) |
| --- | --- | --- | --- | --- | --- | --- | --- | --- | --- | --- | --- | --- | --- | --- | --- | --- |
| HOSMNG BONE | 1.04 ± 0.049 | 1.05 ± 0.11 | 0.921 ± 0.088 | 0.924 ± 0.043 | 0.29 ± 0.031 | 0.12 ± 0.0079 | 0.0573 ± 0.0021 | 0.063 ± 0.0044 | 1.06 ± 0.025 | 1.02 ± 0.059 | 1.03 ± 0.075 | 1.05 ± 0.036 | 1.22 ± 0.069 | 1.23 ± 0.015 | 1.091 ± 0.0096 | 1.19 ± 0.013 |
| MDAMB134 BREAST | 0.936 ± 0.055 | 0.994 ± 0.033 | 0.904 ± 0.18 | 0.67 ± 0.13 | 0.587 ± 0.11 | 0.4935 ± 0.00071 | 0.491 ± 0.072 | 0.598 ± 0.077 | 0.906 ± 0.03 | 0.837 ± 0.13 | 0.856 ± 0.18 | 0.837 ± 0.033 | 1.01 ± 0.11 | 0.969 ± 0.24 | 1.05 ± 0.033 | 0.8405 ± 0.0021 |
| OSHN BONE | 1.03 ± 0.025 | 1.05 ± 0.012 | 0.0353 ± 0.0015 | 0.0313 ± 0.0011 | 0.0273 ± 0.00058 | 0.0243 ± 0.00058 | 0.018 | 0.022 ± 0.001 | 1.091 ± 0.0051 | 1.06 ± 0.022 | 1.09 ± 0.035 | 1.05 ± 0.044 | 1.141 ± 0.0049 | 1.13 ± 0.015 | 1.15 ± 0.014 | 1.113 ± 0.011 |
| LM7 BONE | 0.951 ± 0.061 | 0.825 ± 0.034 | 0.123 ± 0.019 | 0.092 ± 0.003 | 0.0847 ± 0.0068 | 0.075 ± 0.0044 | 0.0723 ± 0.0015 | 0.0703 ± 0.004 | 1.06 ± 0.017 | 1.07 ± 0.051 | 1.09 ± 0.076 | 1.05 ± 0.028 | 1.11 ± 0.064 | 1.08 ± 0.094 | 1 ± 0.028 | 1.02 ± 0.018 |
| SG28 HEADNECK | 1.05 ± 0.086 | 0.903 ± 0.13 | 0.645 ± 0.033 | 0.635 ± 0.051 | 0.463 ± 0.072 | 0.505 ± 0.0085 | 0.458 ± 0.02 | 0.487 ± 0.043 | 1.23 ± 0.042 | 1.1 | 1.07 ± 0.065 | 0.97 ± 0.0014 | 1.024 ± 0.0035 | 1 ± 0.084 | 1.11 ± 0.034 | 1.18 ± 0.19 |
| MG63 BONE | 0.901 ± 0.049 | 0.881 ± 0.021 | 0.263 ± 0.016 | 0.095 ± 0.01 | 0.0463 ± 0.0055 | 0.038 ± 0.0044 | 0.0287 ± 0.0015 | 0.03 ± 0.002 | 1.08 ± 0.043 | 1 ± 0.023 | 1.08 ± 0.031 | 1.07 ± 0.045 | 1.08 ± 0.034 | 1.076 ± 0.004 | 1.05 ± 0.055 | 1.01 ± 0.032 |
| HT1080 SOFT TISSUE | 0.772 ± 0.034 | 0.533 ± 0.0091 | 0.133 ± 0.019 | 0.0517 ± 0.0035 | 0.0427 ± 0.0031 | 0.031 ± 0.0017 | 0.0293 ± 0.0025 | 0.0317 ± 0.00058 | 1.07 ± 0.024 | 1.1 ± 0.011 | 1.09 ± 0.051 | 1.09 ± 0.013 | 1.03 ± 0.023 | 1.04 ± 0.044 | 1.03 ± 0.058 | 1.06 ± 0.062 |
| HMT3552 BREAST | 0.568 | 0.133 | 0.09 | 0.091 | 0.106 | 0.099 | 0.1 | 0.094 | 1.03 ± 0.063 | 0.996 ± 0.11 | 1.02 ± 0.032 | 1.03 ± 0.065 | 1.205 ± 0.0096 | 1.17 ± 0.059 | 1.25 ± 0.031 | 1.14 ± 0.088 |

— the supplement of paper PMC6045584
